Experimental data: patent US7294625B2, “Pyrazole compounds” (Ube Industries, Ltd., priority 2002, dated 2007)
pIC50: −log10 of the molar value.

Tests used:
[1] = system: cytokine (IL-1β and TNF-α) induced IL-6 production; experiment: Inhibition of IL-6 production in rat (in vivo); settings: LEW rats, 3 mg/Kg oral, 1 hour before IL-1β/TNF-α i.v., serum IL-6 two hours later
Experimental: Test Example 3 Inhibition of IL-6 Production in Rat (In Vivo)
A cytokine mixed solution of IL-1β and TNF-α was intravenously injected to rats to induce production of IL-6. A mixed solution of IL-1β (available from R&D) (4 μg/ml) and TNF-α (available from R&D) (2 μg/ml) dissolved in PBS was administered to tail vein of LEW series rats (female, body weight: about 140 to 170 g, available from Charles River Japan, Inc.) fasted overnight with a ratio of 1 ml/kg of the body weight. Two hours later, blood was collected from the neck vein under ether anesthesia. The collected blood was centrifuged under the conditions of 20° C. and 10,000×g to separate serum. IL-6 concentration in the serum was measured by using an enzyme-linked immunosorbent assay (ELISA) kit (IL-6 ELISA KIT, available from R&D).
The test compound or the vehicle was orally administered with a dose of 10 ml/kg of the body weight before 1 hour of the injection of the cytokine mixed solution. The control group to which the vehicle was administered and the group of the compound to be tested were each 5 rats per group. An inhibitory ratio of the group of the compound to be tested based on control group was calculated.

[2] = target: T1, p38MAP kinase (Homo sapiens, UniProt Q16539); experiment: Enzyme inhibitory test against p38MAP kinase; type: biochemical; settings: active type p38MAP kinase, EGFR peptide substrate, [γ-32P]ATP, 30° C. 30 minutes; read-out: p38MAP kinase inhibition IC50 value
T1 construct: purchased Stratagene (p38MAP kinase); Upstate (SKK/MKK6) #206145 (p38MAP kinase); #14-225 or #14-303 (SKK/MKK6)
T1 sequence (Q16539 whole entry): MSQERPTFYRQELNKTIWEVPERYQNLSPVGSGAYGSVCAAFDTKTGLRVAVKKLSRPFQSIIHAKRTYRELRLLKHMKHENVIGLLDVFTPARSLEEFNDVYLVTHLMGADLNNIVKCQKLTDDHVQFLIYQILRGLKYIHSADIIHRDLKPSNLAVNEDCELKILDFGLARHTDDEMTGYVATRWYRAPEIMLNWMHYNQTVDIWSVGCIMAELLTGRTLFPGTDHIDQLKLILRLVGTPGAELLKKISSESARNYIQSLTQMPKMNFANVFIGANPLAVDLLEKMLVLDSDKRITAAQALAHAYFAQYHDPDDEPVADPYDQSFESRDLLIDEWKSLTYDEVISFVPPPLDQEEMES
Experimental: Test Example 1 Enzyme Inhibitory Test Against p38MAP Kinase
(1) Preparatoin of Active Type p38MAP Kinase
An active type p38MAP kinase was prepared by incubation in a reaction solution (25 mM Tris-HCl pH 7.5, 5 mM β-glycerolphosphate, 2 mM DTT, 0.1 mM […], 10 mM MgCl2, 1 mM ATP) containing p38MAP kinase (Stratagene, #206145) and SKK/MKK6 (Upstate, #14-225 or #14-303) at 30° C. for 1 to 3 hours. This enzyme solution was diluted 5 to 10-fold with Stock Buffer (50 mM Tris-HCl pH 7.5, 0.1 mM EGTA, 0.2 mM Orthovanadate, 0.1% 2-ME, 10% glycerol, 0.03% Brij-35, 0.5 μM Microcystin), and preserved under freezing (−80° C.).
(2) Measurement of Inhibitory Activity of p38MAP Kinase
To 34 μL of a reaction solution (25 mM HEPES, pH 7.5, 10 mM Magnesium acetate) containing the active type p38MAP kinase prepared as mentioned above and a substrate (final concentration: […] EGFR; […]) was added 1 μL of DMSO, or a compound to be tested and dissolved in DMSO, then, the mixture was subjected to preincubation at 4° C. for 30 minutes. A reaction was started by adding 5 μL of an ATP solution (400 μM ATP, 1 μCi/μL [γ-^32P]ATP), and reacted at 30° C. for 30 minutes, and then, the reaction was stopped by adding 5 μL of 250 mM H3PO4. 25 μL of the reaction solution was placed on chromatography paper (Whatman, #P81), dried for about 2 minutes, and washed with 75 mM H3PO4. Water was removed by using 95% ethanol, it was transferred to a bial containing liquid scintillation cocktail (available from Nacalai Tesque), and radioactivity was measured. A concentration (IC50 value) of a compound to be tested necessary for inhibiting 50% of phosphrylation (^32P) of the substrate by the enzyme was calculated as compared to that non-treated by the compound to be tested by XL-fit (available from IDBS).

[3] = system: LPS-induced TNF-α production in human PBMC; experiment: Inhibition of TNF-α production in human PBMC (in vitro); type: cell-based; settings: LPS 10 μg/ml, 18 hours, TNF-α ELISA, read-out: Inhibitory effect on LPS-induced TNF-α production in human PBMC IC50 value
Experimental: Test Example 2 Inhibition of TNF-α Production in Human PBMC (In Vitro)
Test was carried out according to the method of Welker et al. (Int. Arch. Allergy Immunol., 109, 110-115 (1996).
Heparin-added blood collected from healthy volunteer with consent was underlayed with a specific gravity-separating solution (Lymphoprep; available from Daiichi Pure Chemicals Co., Ltd.), subjected to centrifugation (800×g, 25 minutes), and a mononuclear cell layer was recovered. The obtained mononuclear cells (human PBMC) were washed twice with PBS (available from SIGMA), and resuspended in 1% FCS-containing RPMI aqueous solution (available from GIBCO) so that the cells became 5×10^6 cells/mL. The thus obtained cell suspension was diluted 10-fold with 1% FCS-containing RPMI medium, DMSO (or the compound to be tested) with a final concentration of 0.5% was added thereto, and cultured at 37° C. in 5% CO2 for 1 hour. After that, LPS (derived from E. Coli 055:5B, available from SIGMA) solution prepared by PBS was added so that the final concentration thereof being 10 μg/ml, and cultivation was carried out for further 18 hours. After the cultivation, culture medium was subjected to centrifugation (800×g, 10 minutes), and a concentration of TNF-α produced in the supernatant was measured by an enzyme-linked immunosorbent assay (ELISA) kit (TNF-α ELISA Kit, available from R&D). The concentration (IC50 value) of the test compound for inhibiting 50% of TNF-α production was calcualted by using XL-fit (available from IDBS).

[4] = system: rat adjuvant arthritis model; experiment: Anti-inflammatory effect in rat adjuvant arthritis model; type: in vivo; settings: LEW rats, 3 mg/Kg oral once a day
Experimental: Test Example 4 Anti-inflammatory Effect in Rat Adjuvant Arthritis Model
Heat-killed bacteria of Mycobacterium butyricum (available from Difco) were pulverized by agate mortar, and this was suspended in dry-heat sterilized liquid paraffin (available from Wako Pure Chemical Industries, Ltd.) so as to have 10 mg/ml, and subjected to ultrasonic wave treatment to obtain an adjuvant. 500 μg/50 μl/paw of the adjuvant was administered into right hind paw of LEW series rats (female, 7-weeks old, available from Charles River Japan, Inc.) under isoflurane (Forane, available from Abbott Japan) inhalation anesthesia to induce adjuvant arthritis. Also, liquid paraffin containing no dead bacteria was also administered in the same manner as mentioned above to prepare a non-treatment group.
The test compound was suspended in a 0.5% aqueous sodium carboxymethyl cellulose solution, or dissolved in distilled water for injection, and orally administered at a dose of 10 ml/kg once a day from the injected day of the adjuvant (0th day) to 27th day.
After 7th, 14th, 21st and 28th day from administration of the adjuvant, volumes of the right hind paw to which the adjuvant had been administered and of left hind paw to which no adjuvant had been administered were measured by a plethysmometer (TK-101CMP, UNICOM). An edema ratio was calculated from the following equation. Edema ratio (%)=[(volume of hind paw at the time of measurement)/(volume of hind paw before initiation of the test)−1]×100 Moreover, edema suppressive ratio based on the control group to which the vehicle was administered was calculated from the following equation. Edema suppressive ratio (%)=[1-{(edema ratio of test compound-administered group)−(edema ratio of non-treated group)}/{(edema ratio of control group)−(edema ratio of non-treatment group)}]×100 The test results are shown in Table 8.

| pIC50 [2] | Compound | Rat cytokine induced IL-6 production inhibiting ratio (%) @3 mg/Kg [1] [%] | pIC50 [3] | left hind paw edema suppressive ratio (%) @3 mg/Kg ([4]; 21st day) | 28th day left hind paw edema suppressive ratio (%) @3 mg/Kg [4] |
| --- | --- | --- | --- | --- | --- |
| 7.60 | Fc1ccc(-c2nn(-c3ccc4nncn4n3)cc2-c2ccncc2)cc1 [Example 5, 3-(4-Fluorophenyl)-4-(pyridin-4-yl)-1-([1,2,4]triazolo[4,3-b]pyridazin-6-yl)-1H-pyrazole] | 92 | 8.40 | – | – |
| 7.54 | CNc1cc(-c2cn(-c3ccc4nncn4n3)nc2-c2ccc(F)cc2)ccn1 [Example 13, 3-(4-Fluorophenyl)-4-(2-methylaminopyridin-4-yl)-1-([1,2,4]triazolo[4,3-b]pyridazin-6-yl)-1H-pyrazole] | – | – | 79 (21st day) % | – |
| 8.70 | Fc1ccc(-c2nn(-c3ccc4nncn4n3)cc2-c2ccnc(NCC(F)(F)F)c2)cc1 [Example 16, 3-(4-Fluorophenyl)-1-([1,2,4]triazolo[4,3-b]pyridazin-6-yl)-4-[2-(2,2,2-trifluoroethyl)aminopyridin-4-yl]-1H-pyrazole] | 97 | – | – | – |
| – | O=C1CCC(n2cc(-c3ccnc(NCC(F)(F)F)c3)c(-c3ccc(F)cc3)n2)=NN1 [Example 56, 3-(4-Fluorophenyl)-1(1,4,5,6-tetrahydro-6-oxopyridazin-3-yl)-4-[2-(2,2,2-trifluoroethyl)aminopyridin-4-yl]-1H-pyrazole] | 85 | – | – | – |
| 8.60 | Nc1cc(-c2cn(-c3ccc(=O)[nH]n3)nc2-c2ccc(F)cc2)ccn1 [Example 2, 4-(2-Aminopyridin-4-yl)-3-(4-fluorophenyl)-1-(1,6-dihydro-6-oxopyridazin-3-yl)-1H-pyrazole] | – | 7.62 | – | 83 (28th day) % |
| 8.13 | Nc1cc(-c2cn(-c3ccc4nncn4n3)nc2-c2ccc(F)cc2)ccn1 [Example 8, 4-(2-Aminopyridin-4-yl)-3-(4-fluorophenyl)-1-([1,2,4]triazolo[4,3-b]pyridazin-6-yl)-1H-pyrazole] | – | – | – | 79 (28th day) % |
| – | CNc1cc(-c2cn(-c3ccc(=O)[nH]n3)nc2-c2ccc(F)cc2)ccn1 [Example 3, 3-(4-Fluorophenyl)-1-(1,6-dihydro-6-oxopyridazin-3-yl)-4-(2-methylaminopyridin-4-yl)-1H-pyrazole] | 81 | – | – | – |
| 8.15 | Nc1cc(-c2cn(C3=NNC(=O)CC3)nc2-c2ccccc2)ccn1 [Example 49, 4-(2-Aminopyridin-4-yl)-1-(1,4,5,6-tetrahydro-6-oxopyridazin-3-yl)-3-phenyl-1H-pyrazole] | 84 | – | – | – |
| 8.02 | Nc1cc(-c2cn(-c3ccc4nncn4n3)nc2-c2ccccc2F)ccn1 [Example 42, 4-(2-Aminopyridin-4-yl)-3-(2-fluorophenyl)-1-([1,2,4]triazolo[4,3-b]pyridazin-6-yl)-1H-pyrazole] | 73 | – | – | – |
